# Data published in patent publication US20240116985A1, “STAPLED PEPTIDES AND METHODS THEREOF” (priority 2020, published 2024).
# Like-named read-outs stand apart in the source and are kept apart here.
# Key:
# [1] = biological target: T1, beta-catenin/TCF4 engagement (Homo sapiens, UniProt P35222); assay: Nano-BRET target engagement assay (B-cat-Halo & TCF4-Luc in HEK293 cells); format: cell-based; settings: read-out: NanoBRET Abs IC50
# T1 construct: expressed in transfected cells; host or cells: HEK293
# T1 sequence (P35222 1-781): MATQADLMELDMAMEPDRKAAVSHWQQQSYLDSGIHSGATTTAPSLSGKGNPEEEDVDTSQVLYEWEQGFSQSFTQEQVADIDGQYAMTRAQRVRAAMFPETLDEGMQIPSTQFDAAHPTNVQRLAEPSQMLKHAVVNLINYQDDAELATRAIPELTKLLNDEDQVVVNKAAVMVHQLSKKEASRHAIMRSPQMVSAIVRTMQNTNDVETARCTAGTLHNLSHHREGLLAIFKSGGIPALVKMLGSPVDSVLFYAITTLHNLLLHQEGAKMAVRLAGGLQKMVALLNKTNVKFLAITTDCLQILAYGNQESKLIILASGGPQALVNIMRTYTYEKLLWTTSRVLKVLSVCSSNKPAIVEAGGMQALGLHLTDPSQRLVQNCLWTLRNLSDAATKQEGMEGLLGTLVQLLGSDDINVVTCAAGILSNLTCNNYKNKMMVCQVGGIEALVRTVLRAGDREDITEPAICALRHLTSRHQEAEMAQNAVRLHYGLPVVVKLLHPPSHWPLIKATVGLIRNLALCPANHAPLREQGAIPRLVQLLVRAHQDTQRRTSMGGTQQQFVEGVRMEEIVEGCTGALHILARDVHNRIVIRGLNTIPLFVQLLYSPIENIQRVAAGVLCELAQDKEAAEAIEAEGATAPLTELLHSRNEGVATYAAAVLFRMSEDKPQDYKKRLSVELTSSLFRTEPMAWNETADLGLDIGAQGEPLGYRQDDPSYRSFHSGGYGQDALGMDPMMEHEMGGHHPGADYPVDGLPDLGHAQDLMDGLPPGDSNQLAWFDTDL
# [2] = biological target: T2, full-length beta-Catenin (Uniprot ID P35222) (Homo sapiens, UniProt P35222); assay: Fluorescence polarization IC50 (beta-catenin / 5FAM-TCF4 10-53 competition); format: binding; settings: fluorescence polarization; read-out: beta-Catenin FP IC50
# T2 construct: 10 nM full-length beta-Catenin (Uniprot ID P35222)
# T2 sequence (P35222 1-781): T1 sequence (P35222 1-781)
SMILES,IC50 ([1]; absolute IC50) [µM],IC50 [2] [nM],IC50 [1] [µM]
"CC(=O)N1CCC[C@]12CC=CCCCC1(CCCC=CCCCOC(=O)N3CC[C@@](C(=O)N[C@@H](Cc4ccsc4)C(=O)N[C@@H](Cc4csc5ccccc45)C(=O)N[C@@H](CCC(N)=O)C(N)=O)(C3)NC(=O)[C@H](CC(C)C)NC(=O)[C@H](Cc3ccccc3)NC(=O)[C@H](C)NC(=O)[C@H](C)NC(=O)[C@H](CCN(CCCC(F)(F)F)CC(=O)O)NC(=O)[C@H](CC(=O)O)NC1=O)NC(=O)[C@H](CC(C)(C)C)NC(=O)[C@H](CC(=O)O)NC2=O (stereo partly drawn) [I-1837, Ac-PL3-Asp-Npg-B5-Asp-[Tfb]GAbu-Ala-Ala-Phe-Leu-PyrS2-3Thi-BztA-Gln-NH2]",18.5,19,
"CC(=O)N1CCC[C@]12CC=CCCCC1(CCCC=CCCCOC(=O)N3CC[C@@](C(=O)N[C@@H](Cc4ccccc4Cl)C(=O)N[C@@H](Cc4csc5ccccc45)C(=O)N[C@@H](CO)C(=O)N[C@H](CO)[C@@H](C)O)(C3)NC(=O)[C@H](CC(C)C)NC(=O)[C@H](Cc3ccccc3)NC(=O)[C@H](C)NC(=O)[C@H](C)NC(=O)[C@H](Cc3cccc(C(=O)O)c3)NC(=O)[C@H](CC(=O)O)NC1=O)NC(=O)[C@H](CC(C)(C)C)NC(=O)[C@H](CC(=O)O)NC2=O (stereo partly drawn) [I-1905, Ac-PL3-Asp-Npg-B5-Asp-3COOHF-Ala-Ala-Phe-Leu-PyrS2-2C1F-BztA-Ser-Thro1]",,20,9.7
"CC(=O)N1CCC[C@]12CC=CCCCC1(CCCC=CCCCCOC(=O)N3CCC(C(=O)N[C@@H](Cc4ccsc4)C(=O)N[C@@H](Cc4csc5ccccc45)C(=O)N[C@@H](CCC(N)=O)C(N)=O)(CC3)NC(=O)[C@H](CC(C)C)NC(=O)[C@H](Cc3ccccc3)NC(=O)[C@H](C)NC(=O)[C@H](C)NC(=O)[C@H](Cc3cccc(C(=O)O)c3)NC(=O)[C@H](CC(=O)O)NC1=O)NC(=O)[C@H](CC(C)(C)C)NC(=O)[C@H](CC(=O)O)NC2=O (stereo partly drawn) [I-2590, Ac-PL3-Asp-Npg-B5-Asp-3COOHF-Ala-Ala-Phe-Leu-SPip3-3Thi-BztA-Gln-NH2]",,25,18.9
"CC(=O)N1CCC[C@]12CC=CCCCC1(CCCC=CCCCOC(=O)N3CC[C@@](C(=O)N[C@@H](Cc4ccsc4)C(=O)N[C@@H](Cc4csc5ccccc45)C(=O)N[C@@H](CCC(N)=O)C(N)=O)(C3)NC(=O)[C@H](CC(C)C)NC(=O)[C@H](Cc3ccccc3)NC(=O)[C@H](C)NC(=O)[C@H](C)NC(=O)[C@H](CCN(CC(=O)O)C(=O)c3ccccn3)NC(=O)[C@H](CC(=O)O)NC1=O)NC(=O)[C@H](CC(C)(C)C)NC(=O)[C@H](CC(=O)O)NC2=O (stereo partly drawn) [I-2247, Ac-PL3-Asp-Npg-B5-Asp-[Pic]GAbu-Ala-Ala-Phe-Leu-PyrS2-3Thi-BztA-Gln-NH2]",5.9,8,
"CC(=O)N1CCC[C@]12CC=CCCCC1(CCCC=CCCCOC(=O)N3CC[C@@](C(=O)N[C@@H](Cc4ccsc4)C(=O)N[C@@H](Cc4csc5ccccc45)C(=O)N[C@@H](C)C(N)=O)(C3)NC(=O)[C@H](C(C)C)NC(=O)[C@H](Cc3ccccc3)NC(=O)[C@H](C)NC(=O)[C@H](CCC(=O)N(C)C)NC(=O)[C@H](Cc3cccc(C(=O)O)c3)NC(=O)[C@H](CC(=O)O)NC1=O)NC(=O)[C@H](CC(C)(C)C)NC(=O)[C@H](CC(=O)O)NC2=O (stereo partly drawn) [I-2303, Ac-PL3-Asp-Npg-B5-Asp-3COOHF-[NMe2]GlnR-Ala-Phe-Val-PyrS2-3Thi-BztA-Ala-NH2]",1.2,5,
"CC(=O)N1CCC[C@]12CC=CCCCC1(CCCC=CCCCOC(=O)N3CC[C@@](C(=O)N[C@@H](Cc4ccccc4C(F)(F)F)C(=O)N[C@@H](Cc4csc5ccccc45)C(=O)N[C@@H](CO)C(N)=O)(C3)NC(=O)[C@H](CC(C)C)NC(=O)[C@H](Cc3ccccc3)NC(=O)[C@H](C)NC(=O)[C@H](C)NC(=O)[C@H](Cc3ccccc3C(=O)O)NC(=O)[C@H](CC(=O)O)NC1=O)NC(=O)[C@H](CC(C)(C)C)NC(=O)[C@H](CC(=O)O)NC2=O (single isomer, unassigned) [I-1661, Ac-PL3-Asp-Npg-B5-Asp-2COOHF-Ala-Ala-Phe-Leu-PyrS2-2F3MeF-BztA-Ser-NH2]",8.3,70,
"CC(=O)N1CCC[C@]12CC=CCCCC1(CCCC=CCCCOC(=O)N3CC[C@@](C(=O)N[C@@H](Cc4ccsc4)C(=O)N[C@@H](Cc4csc5ccccc45)C(=O)N[C@@H](CCC(N)=O)C(N)=O)(C3)NC(=O)[C@H](CC(C)C)NC(=O)[C@H](Cc3ccccc3)NC(=O)[C@H](C)NC(=O)[C@H](C)NC(=O)[C@H](CCn3cc(C(C)(C)C(=O)O)nn3)NC(=O)[C@H](CC(=O)O)NC1=O)NC(=O)[C@H](CC(C)(C)C)NC(=O)[C@H](CC(=O)O)NC2=O (stereo partly drawn) [I-2079, Ac-PL3-Asp-Npg-B5-Asp-[CMe2CO2H]TriAzDab-Ala-Ala-Phe-Leu-PyrS2-3Thi-BztA-Gln-NH2]",,8,15.1
"CC(=O)N1CCC[C@]12CC=CCCCC1(CCCC=CCCCOC(=O)N3CC[C@@](C(=O)N[C@@H](Cc4ccsc4)C(=O)N[C@@H](Cc4csc5ccccc45)C(=O)N[C@@H](CCC(N)=O)C(N)=O)(C3)NC(=O)[C@H](CC(C)C)NC(=O)[C@H](Cc3ccccc3)NC(=O)[C@H](C)NC(=O)[C@H](C)NC(=O)[C@H](CCNCC(=O)O)NC(=O)[C@H](CC(=O)O)NC1=O)NC(=O)[C@H](CC(C)(C)C)NC(=O)[C@H](CC(=O)O)NC2=O (stereo partly drawn) [I-1841, Ac-PL3-Asp-Npg-B5-Asp-GAbu-Ala-Ala-Phe-Leu-PyrS2-3Thi-BztA-Gln-NH2]",> 20,76,
"COCCOCCOCCOCCC(=O)NCCCC[C@@H]1NC(=O)[C@H](CCC(N)=O)NC(=O)[C@H](CC(=O)O)NC(=O)C2(CCCC=CCCCOC(=O)N3CC[C@@](C(=O)N[C@@H](Cc4ccccc4)C(=O)N[C@@H](Cc4csc5ccccc45)C(=O)N[C@@H](CC(=O)N4CCOCC4)C(N)=O)(C3)NC(=O)[C@H](CC(C)C)NC(=O)[C@H](Cc3ccccc3)NC(=O)[C@H](C)NC1=O)CCCC=CC[C@]1(CCCN1C(C)=O)C(=O)N[C@@H](CC(N)=O)C(=O)N[C@@H](CC1CCCCC1)C(=O)N2 (stereo partly drawn) [I-2526, Ac-PL3-Asn-Cha-B5-Asp-Gln-[mPEG4]Lys-Ala-Phe-Leu-PyrS2-Phe-BztA-MorphAsn-NH2]",> 20,224,

# The remaining compounds from weak to strong by IC50 [2], led by results:
IC50 ([1]; absolute IC50) [µM],IC50 [2] [nM],IC50 [1] [µM],SMILES
> 20,102,,"CC(=O)N1CCC[C@]12CC=CCCCC1(CCCC=CCCCOC(=O)N3CC[C@@](C(=O)N[C@@H](Cc4ccsc4)C(=O)N[C@@H](Cc4csc5ccccc45)C(=O)N[C@@H](CC(=O)N(C)C)C(N)=O)(C3)NC(=O)[C@H](CC(N)=O)NC(=O)[C@H](Cc3ccccc3)NC(=O)[C@H](C)NC(=O)C(C)(C)NC(=O)[C@H]([C@@H](C)O)NC(=O)[C@H](CC(N)=O)NC1=O)NC(=O)[C@H](CC(C)(C)C)NC(=O)[C@H](CC(=O)O)NC2=O (stereo partly drawn) [I-2494, Ac-PL3-Asp-Npg-B5-Asn-Thr-Aib-Ala-Phe-Asn-PyrS2-3Thi-BztA-Me2Asn-NH2]"
6,33,,"CCCC[C@@H]1NC(=O)[C@H](CC(=O)O)NC(=O)[C@]2(CC=CCCCC3(CCCC=CCCCOC(=O)N4CC[C@@](C(=O)N[C@@H](Cc5ccsc5)C(=O)N[C@@H](Cc5csc6ccccc56)C(=O)N[C@@H](CCC(N)=O)C(N)=O)(C4)NC(=O)[C@H](CCCC)NC(=O)[C@H](Cc4ccccc4)NC(=O)[C@H](C)NC(=O)[C@H](C)NC(=O)[C@H](Cc4cccc(C(=O)O)c4)NC(=O)[C@H](CC(=O)O)NC3=O)NC1=O)CCCN2C(C)=O (stereo partly drawn) [I-1408, Ac-PL3-Asp-nLeu-B5-Asp-3COOHF-Ala-Ala-Phe-nLeu-PyrS2-3Thi-BztA-Gln-NH2]"
24.8,27,,"CC(=O)N1CCC[C@]12CC=CCCCC1(CCCC=CCCCOC(=O)N3CC[C@@](C(=O)N[C@@H](Cc4ccsc4)C(=O)N[C@@H](Cc4ccc5ccccc5c4)C(=O)N[C@@H](CCC(N)=O)C(N)=O)(C3)NC(=O)[C@H](CC(C)C)NC(=O)[C@H](Cc3ccccc3)NC(=O)[C@H](C)NC(=O)[C@H](C)NC(=O)[C@H](CC(=O)O)NC(=O)[C@H](CC(=O)O)NC1=O)NC(=O)[C@H](CC(C)(C)C)NC(=O)[C@H](CC(=O)O)NC2=O (stereo partly drawn) [I-1235, Ac-PL3-Asp-Npg-B5-Asp-Asp-Ala-Ala-Phe-Leu-PyrS2-3Thi-2NapA-Gln-NH2]"
17.4,11,,"CC(=O)N1CCC[C@]12CC=CCCCC1(CCCC=CCCCOC(=O)N3CC[C@@](C(=O)N[C@@H](Cc4ccsc4)C(=O)N[C@@H](Cc4csc5ccccc45)C(=O)N[C@@H](CCO)C(N)=O)(C3)NC(=O)[C@H](CC(C)C)NC(=O)[C@H](Cc3ccccc3)NC(=O)[C@H](C)NC(=O)[C@H](C)NC(=O)[C@H](CC(=O)O)NC(=O)[C@H](CC(=O)O)NC1=O)NC(=O)[C@H](CC1CCCCC1)NC(=O)[C@H](CC(=O)O)NC2=O (stereo partly drawn) [I-1520, Ac-PL3-Asp-Cha-B5-Asp-Asp-Ala-Ala-Phe-Leu-PyrS2-3Thi-BztA-Hse-NH2]"
